# Test results as given in patent US20230011869A1 (Hoffmann-La Roche Inc., priority 2018, published 2023).
# Counter-ions that a name gives are not always drawn.
# Test system: Acinetobacter baumannii ATCC17961
# Experiment: Antimicrobial susceptibility testing: 90% growth inhibitory concentration (IC90) determination, Iso-Sensitest broth
# Assay type: cell-based
# Details: Acinetobacter baumannii, ATCC17961, 16 h, read-out: ATCC17961 IC90
# How it was run: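 Growth followed by optical density at 600 nm every 20 minutes for 16 h at 35±2° C, with inhibition assessed in log phase to give IC90. Compounds tested as twofold dilution series (e.g. 50 to 0.097 μM final) against 5×10^(5) CFU/ml in Iso-Sensitest medium.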
row,Compound,IC90
1,"CCc1cc(Nc2nccn3c(-c4ccc(OC(F)F)c(F)c4F)cnc23)ccc1C(=O)N1CCC(C(=O)NCC2CCNC2)CC1 (stereo not shown) [Example 590, 1-(4-((3-(4-(difluoromethoxy)-2,3-difluorophenyl)imidazo[1,2-a]pyrazin-8-yl)amino)-2-ethylbenzoyl)-N-(pyrrolidin-3-ylmethyl)piperidine-4-carboxamide 2,2,2-trifluoroacetate formate]",30 nM
2,"CCc1cc(Nc2nccn3c(-c4ccc(OC(F)F)c(F)c4F)cnc23)ccc1C(=O)N1CCC(C(=O)N2CC3(CNC3)C2)CC1 [Example 591, (4-(2,6-diazaspiro[3.3]heptane-2-carbonyl)piperidin-1-yl)(4-((3-(4-(difluoromethoxy)-2,3-difluorophenyl)imidazo[1,2-a]pyrazin-8-yl)amino)-2-ethylphenyl)methanone 2,2,2-trifluoroacetate formate]",52 nM
3,"CCc1cc(Nc2nccn3c(-c4ccc(OC(F)F)c(F)c4F)cnc23)ccc1C(=O)N1CCC(C(=O)N2C[C@@H]3C[C@H]2CN3)CC1 [Example 592, (4-((1S,4S)-2,5-diazabicyclo[2.2.1]heptane-2-carbonyl)piperidin-1-yl)(4-((3-(4-(difluoromethoxy)-2,3-difluorophenyl)imidazo[1,2-a]pyrazin-8-yl)amino)-2-ethylphenyl)methanone 2,2,2-trifluoroacetate formate]",38 nM
4,"CCc1cc(Nc2nccn3c(-c4ccc(OC(F)F)c(F)c4F)cnc23)ccc1C(=O)N1CCC(N)CC1 [Example 593, (4-aminopiperidin-1-yl)(4-((3-(4-(difluoromethoxy)-2,3-difluorophenyl)imidazo[1,2-a]pyrazin-8-yl)amino)-2-ethylphenyl)methanone formate]",196 nM
